From ChEMBL document CHEMBL1821618, “Characteristic of alkylated chalcones from Angelica keiskei on influenza virus neuraminidase inhibition” (Bioorg Med Chem Lett, 2011)

Legend:
[1] = molecular target: Neuraminidase (Influenza A virus (strain A/Brevig Mission/1/1918 H1N1) (Influenza Avirus (strain A/South Carolina/1/1918 H1N1)), UniProt Q9IGQ6); experiment: Noncompetitive inhibition of Influenza A virus (A/Brevig Mission/1/1918(H1N1)) recombinant neuraminidase using 4-methylumbelliferyl-alpha-D-N-acetylneuraminic acid sodium salt hydrate solution substrate by double reciprocal Lineweaver-Burk plot and dixon plot analysis
[2] = molecular target: Neuraminidase (Influenza A virus (strain A/Brevig Mission/1/1918 H1N1) (Influenza Avirus (strain A/South Carolina/1/1918 H1N1)), UniProt Q9IGQ6); experiment: Inhibition of Influenza A virus (A/Brevig Mission/1/1918(H1N1)) recombinant neuraminidase using 4-methylumbelliferyl-alpha-D-N-acetylneuraminic acid sodium salt hydrate solution substrate by ELISA

Chain of Neuraminidase (Influenza A virus (strain A/Brevig Mission/1/1918 H1N1) (Influenza Avirus (strain A/South Carolina/1/1918 H1N1)), UniProt Q9IGQ6) (Q9IGQ6 whole entry): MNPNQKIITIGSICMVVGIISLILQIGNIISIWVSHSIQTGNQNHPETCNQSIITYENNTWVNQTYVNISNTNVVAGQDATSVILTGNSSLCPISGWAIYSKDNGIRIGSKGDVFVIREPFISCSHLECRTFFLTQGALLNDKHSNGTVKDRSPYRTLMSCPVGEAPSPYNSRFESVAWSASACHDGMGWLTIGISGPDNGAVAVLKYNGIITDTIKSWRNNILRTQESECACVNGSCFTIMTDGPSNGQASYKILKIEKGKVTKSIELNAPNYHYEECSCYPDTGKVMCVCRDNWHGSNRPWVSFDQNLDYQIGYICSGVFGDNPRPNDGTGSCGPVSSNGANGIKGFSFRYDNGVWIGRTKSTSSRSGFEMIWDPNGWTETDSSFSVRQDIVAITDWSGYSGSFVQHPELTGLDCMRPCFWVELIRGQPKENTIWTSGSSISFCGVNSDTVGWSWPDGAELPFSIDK

Compound: COc1ccc(C(=O)/C=C/c2ccc(O)cc2)c(O)c1CC=C(C)C
- Ki [1]: 50.2 µM
- IC50 [2]: 42.1 µM

Compound: COC(CC/C(C)=C/Cc1c(O)ccc(C(=O)/C=C/c2ccc(O)cc2)c1O)OC [XANTHOKEISTAL A]
- Ki [1]: 33.5 µM
- IC50 [2]: 30.9 µM

Compound: C=C(C)C(O)CC/C(C)=C/Cc1c(OC)ccc(C(=O)/C=C/c2ccc(O)cc2)c1O (configuration not stated) [XANTHOANGELOL G]
- Ki [1]: 20 µM
- IC50 [2]: 24.2 µM

Compound: COc1ccc(C(=O)/C=C/c2ccc(O)cc2)c(O)c1C/C=C(\C)CCC=C(C)C [XANTHOANGELOL F]
- Ki [1]: 123 µM
- IC50 [2]: 85.9 µM

Compound: C=C(C)C(O)CC/C(C)=C/Cc1c(O)ccc(C(=O)/C=C/c2ccc(O)cc2)c1O (configuration not stated) [XANTHOANGELOL B]
- Ki [1]: 20.7 µM
- IC50 [2]: 22.5 µM

Compound: C=C(C)C(O)Cc1c(OC)ccc(C(=O)/C=C/c2ccc(O)cc2)c1O (configuration not stated) [XANTHOANGELOL D]
- Ki [1]: 14 µM
- IC50 [2]: 12.3 µM
